Values after ≈ are worked out from the molar mass of the structure shown. Read-outs that look alike come from different tables or passages of the source. Marks after values point to notes of the source that are not given here. Blank lines part the entries; values can stand above or below the compound they belong to.
What was measured:
[1] = Solubility of cholecalciferol and cholecalciferol phosphate (disodium, acid); assay type: physicochemical; conditions: read-out: Solubility
Protocol: Aliquots of cholecalciferol, cholecalciferol phosphate disodium, and cholecalciferol phosphate acid were added to a range of solvents including propylene glycol (PG), distilled water, methanol, ethyl acetate, ethanol, n-hexane, and the visual solubility was determined. A precise assessment of the saturation solubility was for some of the solvent systems was made using high-performance liquid chromatography (HPLC). In the HPLC solubility studies, an excess of each solute was added into 2 mL of each test solvent. The solutions were left stirring overnight at room temperature, (RT), 22° C. The saturation of the solutions was confirmed by the visual appearance of crystals and the drug suspensions were filtered through 0.2 μm cellulose acetate syringe filters, diluted with excess of mobile phase, and the solute concentration of each sample was assessed using HPLC.

[2] = Chemical stability of cholecalciferol and cholecalciferol phosphate disodium in donor, extraction and receiver fluids; assay type: physicochemical; conditions: for remaining at 24 h: 37° C.
Protocol: To assess the chemical stability of the test agents in the liquids in which they were to be dissolved for the skin permeation experiments, 1 mg/mL solutions of cholecalciferol and cholecalciferol phosphate disodium in propylene glycol (PG) were prepared and incubated at 37° C. for 24 h. In addition, 100 μg/mL cholecalciferol in 50:50 PG:ethanol mixture, 100 μg/mL cholecalciferol phosphate disodium in 90:10 methanol:water mixture as well as and in 50% PG 40% Methanol: 10% water pH 3.2 (90:10) were also incubated at 37° C. for 24 hours.

[3] = Solubility of iron chloride hexahydrate and iron complexes (visual / assayed); assay type: physicochemical
Protocol: Due to the high number of test samples (6 complexes plus the starting material, iron chloride hexahydrate) a visual solubility screen was used to screen the solubility in a range of solvents. […] Quantitative determination was performed by either incubating the complex in excess in the solvent using a shaking 37° C. water bath for 48 h or sonicating it for 2 hours at 40° C. or leaving overnight on a 50° C. hot plate. Once incubation period was completed, the exact solubility in a particular solvent was assayed (using the iron assay) after centrifugation (i.e. assay iron content in the supernatant using the Ferrozine® assay).

[4] = Iron complex adhesive compatibility and loading screen; assay type: physicochemical
Protocol: Pre-formulation studies were performed to determine the compatibility of the iron complexes with a range of transdermal patch adhesives (Table 15).
The compatibility of the complexes with the patch adhesives was assessed by mixing and visually checking the clarity of the mixture.
In the adhesives that were computable with the iron complexes the maximum drug loading of the complexes in the adhesive following solvent evaporation was determined. This was achieved by mixing the drug, adhesive and co-solvents until a clear solution was obtained at different drug:adhesive ratios and placing few drops of the mixture onto the patch backing sheet, leaving it to dry for 3-4 h, and examining the formed film on the surface of the backings for evidence of drug crystals.
Following complete drying of the solvents, the adhesive layer was covered by a release liner, compressed, and then cut using 34 mm circular manual die cutter (FIG. 23).

[5] = Iron complex reservoir solvent solubility screening; assay type: physicochemical
Source text: Iron complex was again screened with a range of suitable excipients and solvents to formulate a solution of high concentration that could be loaded into the patch reservoir. The solvents screened included ethanol, methanol, PG, PEG400, SDS, Tween 85, Span 20, Kolliphore®, Natrsol M250 and dimethicone (Note: methanol is not suitable for formulation but it was used to increase solubility in the other solvents. It was evaporated prior to formulation testing).

[6] = Franz cell porcine skin permeation and deposition of iron from solutions; assay type: in vitro ADME
Protocol: The permeation of the iron complexes from the formulations into and across porcine skin mounted on Franz cells with a receiver fluid was tested (FIG. 4). This was based on the principles of the FDA, SUPAC-SS guidelines. The developed colorimetric assay method was used for iron quantification.
On the day of the experiment, the skin was defrosted. For the full thickness studies, the subcutaneous fat removed (2.5 mm thick) and for the dermatomes skin studies the tissued was dermatomed to a 1 mm thickness. The tissue was cut into the appropriate size sections (2.19±0.21 cm^2) and mounted between donor and receiver compartments of Franz diffusion cells with the SC facing the donor compartment. Each cell was sealed using parafilm and 12 mm magnetic stir bars were placed into the receiver compartment. The receiver compartment was filled with the desired receiver solution and the Franz cells were placed in a stirring water bath at 37° C. Cells were allowed to equilibrate for 30 min after which the receiver fluid using was mixed using a syringe and the “zero hour” sample was withdrawn from the arm and compensate with the same volume of fresh pre-warmed solution. Following zero-hour sampling, the donor solution was placed in the donor compartment and covered with parafilm. Samples were withdrawn and compensated with fresh receiver solution at set time intervals for a 24 h duration. The iron in each sample was quantified using the method specified in Section 2.2.2.1. […] There was no matrix interference noted in the assay. […] For iron maltol a 80:20 PG:water receiver was used along with a complementary calibration for iron assay (iron chloride in PG:water). The donor solution for the iron maltol made at pH 1.6 was 200 μL of 100 mg/mL complex in Transcutul®, for iron maltol made at pH 4 the donor solution was 200 μL of 23 mg/mL complex in PG and for iron maltol made at pH 4 the donor solution was 150 μL of 16 mg/mL complex in 7.5:1.5:1:1 water:PG:dimethicone:ethanol.
Once the permeation studies were completed the donor solutions were collected into bottles containing the extraction solution. This was followed by skin surface cleaning using four cotton buds, the first two were wetted by the extraction fluid and the second two were used dry. Then two tape striping procedures were performed using 2 tapes to remove any iron on the skin surface with the tape being added to the donor solution and cotton buds in the donor recover vial. For the full skin thickness skin, the Stratum corneum, the dermal and the epidermal layers were isolated in the same way as the recovery method (Section 2.3.2.1). Extraction fluid (50:50 PBS:ethanol) was then added to the tissues, 4 mL to the Stratum corneum, and 2 mL for each of the epidermis and dermis. For the dermatomed skin the whole skin section was chopped up and placed in a 2 mL extraction fluid (ethanol).
The Stratum corneum samples were placed on vibrating plate for a minimum of 2 h to extract the iron and then vortexed prior assay. The epidermis, dermis or dermatomed samples however were incubated with the extraction fluid for 1 h after which were transferred to Eppendorf tubes, one stainless steel 5 mm bead was added and the samples were loaded into the TissuLyser II (Qiagen, Germany) for 30-15 min at 30 Hz. The samples were then centrifuged (5 min at 13,000 rpm) and supernatant assayed.

[7] = Solubility of zinc chloride and zinc complexes (visual / HPLC); assay type: physicochemical
Protocol: Accurate measurement of the solubility was then repeated for some of the solvent systems by HPLC. In the HPLC solubility studies, an excess of the test agents was loaded into 2 mL of each test solvent. The solutions were left stirring overnight at 32° C. […] The drug suspensions were then centrifuged, the supernatant diluted, and each sample concentration was measured using HPLC.

[8] = Iron maltol made at pH 7.4, 10 mg complex, 62.5 μL PG, 60 μL ethanol, 125 μL water, 62.5 μL Kolliphore
[9] = Iron maltol made at pH 7.4, 10 mg complex, 125 μL PG, 60 μL ethanol, 62.5 μL water, 62.5 μL Kolliphore
[10] = donor liquid paraffin:ethanol, 24 h

deposition into the skin ([6]; applied to the skin as a PG solution): 8 μg/cm^2 | permeation and deposition in the skin ([6]; solutions, 24 h): permeated and deposited in the skin
Compound: CCC(=O)[O-].CCC(=O)[O-].CCC(=O)[O-].[Fe+3] [Iron propionate made at pH 4, iron propionate]
iron passing through the skin ([6]; applied as solution): neither the patch nor the solution allowed iron to pass through the skin

deposition, all layers combined ([6]; donor Miglyol, 24 h): 3.7 μg/cm^2 | elemental iron permeated the skin ([6]; donor Miglyol, 24 h): 2.5±1.8 μg/cm^2 | deposition, all layers combined [6, 10]: 5.3 μg/cm^2 | elemental iron permeated the skin [6, 10]: 4.4±1.5 μg/cm^2
Compound: iron oleate

More lines, now with the values behind:

Compound: C=C1CC[C@H](O)C/C1=C/C=C1\CCC[C@]2(C)[C@@H]([C@H](C)CCCC(C)C)CC[C@@H]12 [Cholecalciferol, reference compound]
Solubility ([1]; organic solvent or mixture, solvent PG): 7800 ± 190 µg/mL (≈ 20.3 mM) | Solubility ([1]; solvent PG + 5% water): 2400 ± 2 µg/mL | Solubility ([1]; solvent PG + 10% water): 1100 ± 5 µg/mL | Solubility ([1]; solvent PG + 20% water): 700 ± 4 µg/mL | remaining at 24 h ([2]; PG): 93 ± 13% | chemical stability (in words) ([2]; conclusions): indication of chemical instability | remaining at 24 h ([2]; extraction fluid 50:50 PG:ethanol): 92 ± 8%

Compound: CCc1occc(=O)c1[O-].CCc1occc(=O)c1[O-].CCc1occc(=O)c1[O-].[Fe+3] [Iron ethyl maltol made at pH 4, iron ethyl maltol]
Solubility of complex ([3]; PEG400): 15 mg/mL Iron | Solubility, equivalent elemental iron ([3]; PEG400): (1.8 mg/mL | Solubility of complex ([3]; PG): 8.3 mg/mL Iron | Solubility, equivalent elemental iron ([3]; PG): 1 mg/ml mg/mL

Compound: CCc1occc(=O)c1[O-].CCc1occc(=O)c1[O-].CCc1occc(=O)c1[O-].[Fe+3] [Iron ethyl maltol made at pH 7.4, iron ethyl maltol]
Solubility in DURO-TAK 9301 patch ([4]; drug loading 2.5-10%, no permeation enhancer): Precipitated | Solubility in DURO-TAK 9301 patch ([4]; drug loading 4%, 2 mg PEG400): Clear | Solubility in DURO-TAK 9301 patch ([4]; drug loading 4%, 2 mg PG): Clear | Solubility in DURO-TAK 9301 patch ([4]; drug loading 4%, no permeation enhancer): Clear | Solubility in DURO-TAK 9301 patch ([4]; drug loading 5%, 2.5 mg Transcutol): Precipitated | Solubility in DURO-TAK 9301 patch ([4]; drug loading 5%, 2.6 mg PEG400): Precipitated | Solubility in DURO-TAK 9301 patch ([4]; drug loading 5%, 5 mg PEG400): Precipitated | Solubility in DURO-TAK 9301 patch ([4]; drug loading 5%, 5 mg Transcutol): Clear | Solubility in DURO-TAK 9301 patch ([4]; drug loading 6%, 3.3 mg PEG400): Precipitated | Solubility in DURO-TAK 9301 patch ([4]; drug loading 7.5%, 4 mg Transcutol): Precipitated | Solubility in DURO-TAK 9301 patch ([4]; drug loading 7.5-10%, 4-5.5 mg PG): Precipitated | Solubility in DURO-TAK 9301 patch ([4]; drug loading 10-7.5%, 5.5-4 mg PEG400): Precipitated | Solubility of complex (visual) ([3]; PEG400): <8 mg/mL Iron | Solubility of complex ([3]; PG): 2.7 mg/mL Iron | Solubility, equivalent elemental iron ([3]; PG): 320 µg/mL | Solubility of complex ([3]; Saline): 360 μg/mL Iron | Solubility, elemental iron ([3]; Saline): (44 μg/mL

Compound: Cc1occc(=O)c1[O-].Cc1occc(=O)c1[O-].Cc1occc(=O)c1[O-].[Fe+3] [Iron maltol, iron maltol]
compatibility with adhesives [4]: only compatible with DURO-TAK 9301 | (maximum) complex loading achieved in adhesive ([4]; methanol stock solution 10 mg/mL): 4% | complex loading achieved in adhesive patch ([4]; methanol stock solution 18 mg/mL): 8.5% | Solubility of complex (visual) ([3]; Chloroform): ≥20 mg/mL Iron | Solubility of complex (visual) ([3]; Ethanol): ≥6 mg/mL Iron maltol* | Solubility of complex (visual) ([3]; Ethyl acetate): <6 mg/mL Iron maltol* | Solubility of complex (visual) ([3]; Hexane): <6 mg/mL Iron maltol* | Solubility of complex (visual) ([3]; Methanol): ≥18 mg/mL Iron | Solubility of complex (visual) ([3]; Oleic acid): <6 mg/mL Iron maltol* | Solubility of complex (visual) ([3]; Propanol): <6 mg/mL Iron maltol* | Solubility of complex (visual) ([3]; Triaceten): <6 mg/mL Iron maltol* | Observation (solubility, complex) ([5]; Iron maltol made at pH 4, 10 mg complex, 50 μL 2% Nitrosol, 50 μL PG): 22000 µg/mL | Observation ([5]; Iron maltol made at pH 4, 20 mg complex, 0.1 mL Kolliphore, 0.1 mL PEG400): Precipitated | Observation ([5]; Iron maltol made at pH 4, 20 mg complex, 0.1 mL Kolliphore, 0.1 mL PEG400, 10% SDS): Precipitated | Observation ([5]; Iron maltol made at pH 4, 20 mg complex, 0.2 mL Kolliphore): Precipitated | Observation ([5]; Iron maltol made at pH 4, 100 mg complex, 2 mL methanol, 1 mL 80:20 PEG400:PEG1000, precipitate upon methanol evaporation): Precipitate | Observation [5, 8]: Clear | Visual solubility (complex) [5, 8]: (32 mg/mL | Observation ([5]; Iron maltol made at pH 7.4, 10 mg complex, 62.5 μL PG, 62.5 μL water, 125 μL Kolliphore): Precipitated | Observation [5, 9]: Clear | Visual solubility (complex) [5, 9]: (32 mg/mL | Observation ([5]; Iron maltol made at pH 7.4, 20 mg complex, 6 μL Span 20, 0.125 mL ethanol, 0.5 mL PG): Precipitated | Observation ([5]; Iron maltol made at pH 7.4, 30 mg complex, 6 μL Tween 85, 0.125 mL ethanol, 0.5 mL PG): Precipitated | Observation ([5]; Iron maltol made at pH 7.4, 40 mg complex, 12 mg SDS, 0.125 mL ethanol, 0.5 mL PG): Precipitated

Compound: [Cl-].[Cl-].[Zn+2] [Zinc Chloride, Zinc chloride, reference compound]
Elemental zinc solubility (visual) ([7]; solvent PEG400, visual solubility (*)): ~2.7* mg/mL | Elemental zinc solubility evaluated by HPLC ([7]; solvent PG): 2700 µg/mL
